Patent publication US10966970B2, “Fused tricyclic compounds and uses thereof in medicine” (SUNSHINE LAKE PHARMA CO., LTD., priority 2017, dated 2021)

Key:
HBsAg secretion = experiment: Inhibition of HBsAg secretion (ELISA); format: cell-based, HBV; conditions: Hepatitis B virus, HepG2.2.15, 240 h, read-out: HbsAg IC50 (nM)
Experimental: (§1) The chromosomes of HepG2.2.15 cells (SELLS, PNAS, 1987 and SELLS, JV, 1988) integrate the complete HBV genome and stably express viral RNA and viral proteins. HepG2.2.15 cells are able to secrete mature HBV particles and HBsAg into the culture medium. Viral particle DNA and HBsAg secreted by HepG 2.2.15 cells can be quantified by qPCR and ELISA methods, and the effects of the compound on virus replication and HBsAg secretion are thus examined.
(§2) HepG 2.2.15 Cells (8,000 per well) were seeded into 96-well cell culture plates in duplicate and cultured for 3 days until the cells grew to fill in pores. Cells were treated with 4-fold serial diluted compound solution for 10 days, and the compound solution was exchanged once every other day, the final concentration of DMSO in all wells was 0.5% and DMSO was used as a drug-free control. On the eleventh day, the supernatant was collected for quantitative detection of HBsAg.
The level of HBsAg secreted by the cells after treatment with the compound was detected by ELISA. The method used a hepatitis B surface antigen diagnostic kit (Shanghai K ehua Biotechnology Co., Ltd. 510910113). 25 ≈L of the supernatant to be examined (diluted to 75 ≈L in PBS) was added to each well of the ELISA plate, and a kit-positive control and a negative control were set. The ELISA plates were blocked with mounting paper and incubated at 37 eC for 60 minutes. The ELISA plate was took out, and the mounting paper was removed, then 50 ≈L of enzyme conjugate was added into each well. After shaking for 10 seconds, the ELISA plates were blocked with mounting paper and incubated at 37 eC for 30 minutes. The ELISA plate was took out, and the mounting paper was removed, and the ELISA plate was repeated washing five times: liquid in the wells was discard each time; the wells was filled with washing solution, then stood for 60 seconds and spined dry; and liquid residue on blotting paper was patted dry. After the washing was completed, to all wells was immediately added a mixture of freshly prepared developer A and developer B: 100 ≈L per well. After shaking for 10 seconds on oscillator, the ELISA plates were blocked with mounting paper and incubated at 37 eC for 30 minutes. To all wells were added 50 ≈L of stop solution. Data were read at a wavelength of 450 nm on an Envision plate reader. Concentration-HBsAg OD450 value was treated with Graphpad Prism 5 software and the IC50 of inhibition of HBsAg secretion by compounds was calculated by a four-parameter nonlinear regression model.

HBV DNA replication = experiment: Inhibition of HBV virus replication (HBV DNA in supernatant, qPCR); format: cell-based; conditions: Hepatitis B virus, 240 h; HepG2.2.15 cells, 10 days treatment, supernatant HBV DNA by qPCR
Experimental: as §1
as §2, with “HBV DNA.” for “HBsAg.”
qPCR method was used for detection of viral genomic DNA, HBV primers were as follows: HBV-For-202, […]; HBV-Rev-315, […].
Using the SY BR Premix Ex Taq II—Takara DRR081S kit, 1 ≈L of the cell culture supernatant was used as a template, a plasmid containing the HBV genome was used for plotting a standard curve, and virus copy number was calculated using the standard curve. Concentration-virus copy number was treated with Graphpad Prism 5 software and the IC50 of inhibition of virus replication by compounds was calculated by a four-parameter nonlinear regression model.

Row | Structure (SMILES) | IC50 (HBsAg secretion) | IC50 (HBV DNA replication)
1 | COC(=O)c1cc2c(cc1N1CCCC1)CC(C(C)C)n1cc(C(=O)O)c(=O)cc1-2 (centres unmarked) [Example 34, 6-isopropyl-10-(methoxycarbonyl)-2-oxo-9-(pyrrolidin-1-yl)-6,7-dihydro-2H-pyrido[2,1-a]isoquinoline-3-carboxylic Acid] | 9.85 nM | 4.74 nM
2 | CNC(=O)c1cc2c(cc1OCCCOC)CC(C(C)C)n1cc(C(=O)O)c(=O)cc1-2 (centres unmarked) [Example 5, 6-isopropyl-9-(3-methoxypropoxy)-10-(methylcarbamoyl)-2-oxo-6,7-dihydro-2H-pyrido[2,1-a]isoquinoline-3-carboxylic Acid] | 9.88 nM | 10.6 nM
3 | COCCCOc1cc2c(cc1C(=O)OC)-c1cc(=O)c(C(=O)O)cn1C(C(C)C)C2 (centres unmarked) [Example 1, 6-isopropyl-10-(methoxycarbonyl)-9-(3-methoxypropoxy)-2-oxo-6,7-dihydro-2H-pyrido[2,1-a]isoquinoline-3-carboxylic Acid] | 2.25 nM | 6.3 nM
4 | COc1cc2c(cc1-c1ccco1)CC(C(C)C)n1cc(C(=O)O)c(=O)cc1-2 (centres unmarked) [Example 16, 9-(furan-2-yl)-6-isopropyl-10-methoxy-2-oxo-6,7-dihydro-2H-pyrido[2,1-a]isoquinoline-3-carboxylic Acid] | 3.2 nM | 1.99 nM
5 | COCCCOc1cc2c(cc1-c1ncc(Br)s1)-c1cc(=O)c(C(=O)O)cn1C(C(C)C)C2 (centres unmarked) [Example 24, 10-(5-bromothiazol-2-yl)-6-isopropyl-9-(3-methoxypropoxy)-2-oxo-6,7-dihydro-2H-pyrido[2,1-a]isoquinoline-3-carboxylic Acid] | 9.99 nM | 8.63 nM
6 | COC(=O)c1cc2c(cc1-c1ccc(Cl)s1)CC(C(C)C)n1cc(C(=O)O)c(=O)cc1-2 (centres unmarked) [Example 73, 9-(5-chlorothiophen-2-yl)-6-isopropyl-10-(methoxycarbonyl)-2-oxo-6,7-dihydro-2H-pyrido[2,1-a]isoquinoline-3-carboxylic Acid] | 12.7 nM | 3.88 nM
7 | CCCCCOc1cc2c(cc1-c1nccs1)-c1cc(=O)c(C(=O)O)cn1C(C(C)C)C2 (centres unmarked) [Example 20, 6-isopropyl-2-oxo-9-(pentyloxy)-10-(thiazol-2-yl)-6,7-dihydro-2H-pyrido[2,1-a]isoquinoline-3-carboxylic Acid] | 8.12 nM | 8.79 nM
8 | COCc1csc(-c2cc3c(cc2OC)-c2cc(=O)c(C(=O)O)cn2C(C(C)C)C3)n1 (centres unmarked) [Example 78, 6-isopropyl-10-methoxy-9-(4-(methoxymethyl)thiazol-2-yl)-2-oxo-6,7-dihydro-2H-pyrido[2,1-a]isoquinoline-3-carboxylic Acid] | 3.26 nM | 2.84 nM
9 | CC(C)C1Cc2cc(OCc3ccccc3)c(-c3nccs3)cc2-c2cc(=O)c(C(=O)O)cn21 (centres unmarked) [Example 18, 9-(benzyloxy)-6-isopropyl-2-oxo-10-(thiazol-2-yl)-6,7-dihydro-2H-pyrido[2,1-a]isoquinoline-3-carboxylic Acid] | 5.53 nM | 8.09 nM
10 | COCCCOc1cc2c(cc1-c1cscn1)-c1cc(=O)c(C(=O)O)cn1C(C(C)C)C2 (centres unmarked) [Example 13, 6-isopropyl-9-(3-methoxypropoxy)-2-oxo-10-(thiazol-4-yl)-6,7-dihydro-2H-pyrido[2,1-a]isoquinoline-3-carboxylic Acid] | 1.48 nM | 0.64 nM
11 | COCCCOc1cc2c(cc1-c1csc(C)n1)-c1cc(=O)c(C(=O)O)cn1C(C(C)C)C2 (centres unmarked) [Example 14, 6-isopropyl-9-(3-methoxypropoxy)-10-(2-methylthiazol-4-yl)-2-oxo-6,7-dihydro-2H-pyrido[2,1-a]isoquinoline-3-carboxylic Acid] | 7.2 nM | 3.36 nM
12 | COCCCOc1cc2c(cc1C(=O)CCC(F)(F)F)-c1cc(=O)c(C(=O)O)cn1C(C(C)C)C2 (centres unmarked) [Example 53, 6-isopropyl-9-(3-methoxypropoxy)-2-oxo-10-(4,4,4-trifluorobutanoyl)-6,7-dihydro-2H-pyrido[2,1-a]isoquinoline-3-carboxylic Acid] |  | 7.99 nM
13 | COC(=O)c1cc2c(cc1-c1ccco1)CC(C(C)C)n1cc(C(=O)O)c(=O)cc1-2 (centres unmarked) [Example 32, 9-(furan-2-yl)-6-isopropyl-10-(methoxycarbonyl)-2-oxo-6,7-dihydro-2H-pyrido[2,1-a]isoquinoline-3-carboxylic Acid] | 9.62 nM | 7.57 nM
14 | COC(=O)c1cc2c(cc1-c1ccc(Cl)o1)CC(C(C)C)n1cc(C(=O)O)c(=O)cc1-2 (centres unmarked) [Example 74, 9-(5-chlorofuran-2-yl)-6-isopropyl-10-(methoxycarbonyl)-2-oxo-6,7-dihydro-2H-pyrido[2,1-a]isoquinoline-3-carboxylic Acid] | 3.68 nM | 2.97 nM
15 | COCCCOc1cc2c(cc1C(=O)OCC(F)F)-c1cc(=O)c(C(=O)O)cn1C(C(C)C)C2 (centres unmarked) [Example 35, 10-((2,2-difluoroethoxy)carbonyl)-6-isopropyl-9-(3-methoxypropoxy)-2-oxo-6,7-dihydro-2H-pyrido[2,1-a]isoquinoline-3-carboxylic Acid] | 9.25 nM | 7.59 nM
16 | COC(=O)c1cc2c(cc1N1CC[C@H](OC(C)=O)C1)CC(C(C)C)n1cc(C(=O)O)c(=O)cc1-2 (stereo partly drawn) [Example 47, 9-((S)-3-acetoxypyrrolidin-1-yl)-6-isopropyl-10-(methoxycarbonyl)-2-oxo-6,7-dihydro-2H-pyrido[2,1-a]isoquinoline-3-carboxylic Acid] |  | 6.35 nM
17 | CC(C)C1Cc2cc(N3CCCC3)c(-c3nccs3)cc2-c2cc(=O)c(C(=O)O)cn21 (centres unmarked) [Example 69, 6-isopropyl-2-oxo-9-(pyrrolidin-1-yl)-10-(thiazol-2-yl)-6,7-dihydro-2H-pyrido[2,1-a]isoquinoline-3-carboxylic Acid] | 15.2 nM | 10.2 nM
18 | COc1cc2c(cc1-c1ncc(C(C)C)s1)CC(C(C)C)n1cc(C(=O)O)c(=O)cc1-2 (centres unmarked) [Example 77, 6-isopropyl-9-(5-isopropylthiazol-2-yl)-10-methoxy-2-oxo-6,7-dihydro-2H-pyrido[2,1-a]isoquinoline-3-carboxylic Acid] | 2.87 nM | 2.79 nM
19 | COCCCOc1cc2c(cc1-c1csc(N)n1)-c1cc(=O)c(C(=O)O)cn1C(C(C)C)C2 (centres unmarked) [Example 8, 10-(2-aminothiazol-4-yl)-6-isopropyl-9-(3-methoxypropoxy)-2-oxo-6,7-dihydro-2H-pyrido[2,1-a]isoquinoline-3-carboxylic Acid] | 6.28 nM | 4.46 nM
20 | COCCCOc1cc2c(cc1-c1cncs1)-c1cc(=O)c(C(=O)O)cn1C(C(C)C)C2 (centres unmarked) [Example 33, 6-isopropyl-9-(3-methoxypropoxy)-2-oxo-10-(thiazol-5-yl)-6,7-dihydro-2H-pyrido[2,1-a]isoquinoline-3-carboxylic Acid] | 3.08 nM | 1.93 nM
21 | CC(=O)c1cc2c(cc1-c1ccco1)CC(C(C)C)n1cc(C(=O)O)c(=O)cc1-2 (centres unmarked) [Example 31, 10-acetyl-9-(furan-2-yl)-6-isopropyl-2-oxo-6,7-dihydro-2H-pyrido[2,1-a]isoquinoline-3-carboxylic Acid] | 8.2 nM | 6.26 nM
22 | CC(C)C1Cc2cc(OCC3CCOCC3)c(-c3nccs3)cc2-c2cc(=O)c(C(=O)O)cn21 (centres unmarked) [Example 21, 6-isopropyl-2-oxo-9-((tetrahydro-2H-pyran-4-yl)methoxy)-10-(thiazol-2-yl)-6,7-dihydro-2H-pyrido[2,1-a]isoquinoline-3-carboxylic Acid] | 0.35 nM | 0.3 nM
23 | COc1cc2c(cc1-c1nccs1)CC(C(C)C)n1cc(C(=O)O)c(=O)cc1-2 (centres unmarked) [Example 75, 6-isopropyl-10-methoxy-2-oxo-9-(thiazol-2-yl)-6,7-dihydro-2H-pyrido[2,1-a]isoquinoline-3-carboxylic Acid] | 2.41 nM | 2.1 nM
